Data: PubChem BioAssay AID292 (DTP/NCI, 2004)
Values joined by “and” are separate entries in the source; they are usually repeats but may differ in a detail not shown here. Equal values may be shown once. Toxic doses and inconclusive results are not listed. Rule for the calls: active = survival T/C of 150% or more; inactive = T/C below 125% in these data.

Tested on: B6C3F1 mice, ip Sarcoma M5076, median survival T/C
Assay: NCI In Vivo Anticancer Drug Screen. Data for tumor model Sarcoma M5076 (intraperitoneal) in B6C3F1 mice
Details: endpoint: median survival time, higher = longer survival
Procedure: The antitumor activity of compounds was measured in mice bearing transplantable tumors. Survival or tumor size were measured and the results are expressed as the measurement made in the treated group (T) divided by the measurement made in the vehicle treated control group (C). The tumor model used in this assay is Sarcoma M5076 (intraperitoneal) in B6C3F1 mice

[1] = dose: 25.0 mg/kg/injection, schedule: Q04DX004 (ip), vehicle: water
[2] = dose: 50.0 mg/kg/injection, schedule: Q04DX004 (ip), vehicle: water
[3] = dose: 100.0 mg/kg/injection, schedule: Q04DX004 (ip), vehicle: water
[4] = dose: 50.0 mg/kg/injection, schedule: Q04DX004 (ip), vehicle: Klucel (hydroxypropylcellulose) (HPC)
[5] = dose: 100.0 mg/kg/injection, schedule: Q04DX004 (ip), vehicle: Klucel (hydroxypropylcellulose) (HPC)
[6] = dose: 200.0 mg/kg/injection, schedule: Q04DX004 (ip), vehicle: Klucel (hydroxypropylcellulose) (HPC)
[7] = dose: 25.0 mg/kg/injection, schedule: Q04DX004 (ip), vehicle: saline with Tween-80
[8] = dose: 50.0 mg/kg/injection, schedule: Q04DX004 (ip), vehicle: saline with Tween-80
[9] = dose: 100.0 mg/kg/injection, schedule: Q04DX004 (ip), vehicle: saline with Tween-80
[10] = dose: 200.0 mg/kg/injection, schedule: Q04DX004 (ip), vehicle: saline with Tween-80
[11] = dose: 25.0 mg/kg/injection, schedule: Q04DX004 (ip), vehicle: saline
[12] = dose: 50.0 mg/kg/injection, schedule: Q04DX004 (ip), vehicle: saline
[13] = dose: 100.0 mg/kg/injection, schedule: Q04DX004 (ip), vehicle: saline
[14] = dose: 25.0 mg/kg/injection, schedule: Q04DX004 (ip), vehicle: suspension in saline
[15] = dose: 50.0 mg/kg/injection, schedule: Q04DX004 (ip), vehicle: suspension in saline
[16] = dose: 100.0 mg/kg/injection, schedule: Q04DX004 (ip), vehicle: suspension in saline
[17] = dose: 37.5 mg/kg/injection, schedule: Q04DX004 (ip), vehicle: saline with Tween-80
[18] = dose: 75.0 mg/kg/injection, schedule: Q04DX004 (ip), vehicle: saline with Tween-80

Measured: T/C

Nc1ccn(C2CC(N)C(CO)O2)c(=O)n1 (stereo not given)
active: dose: 800.0 mg/kg/injection, schedule: Q04DX004 (ip), vehicle: water 163 % of control
inactive: [1] 109 % of control | [2] 118 % of control and 120 % of control | [3] 121 % of control and 124 % of control

Nc1nc(=S)c2[nH]cnc2[nH]1
active: dose: 3.0 mg/kg/injection, schedule: Q01DX004 (ip), vehicle: Klucel (hydroxypropylcellulose) (HPC) 163 % of control | dose: 6.0 mg/kg/injection, schedule: Q01DX004 (ip), vehicle: Klucel (hydroxypropylcellulose) (HPC) 178 % of control | dose: 12.0 mg/kg/injection, schedule: Q01DX004 (ip), vehicle: Klucel (hydroxypropylcellulose) (HPC) 182 % of control | dose: 24.0 mg/kg/injection, schedule: Q04DX004 (ip), vehicle: Klucel (hydroxypropylcellulose) (HPC) 175 % of control

CNC(=O)/C=C/C1=CN2C(=O)c3ccc(C)c(O)c3NC(OC)C2C1 (stereo not given)
inactive: dose: 12.5 micrograms/kg/injection, schedule: Q04DX004 (ip), vehicle: saline 101 % of control and 108 % of control | dose: 25.0 micrograms/kg/injection, schedule: Q04DX004 (ip), vehicle: saline 104 % of control and 124 % of control | dose: 50.0 micrograms/kg/injection, schedule: Q04DX004 (ip), vehicle: saline 95 % of control and 108 % of control | dose: 100.0 micrograms/kg/injection, schedule: Q04DX004 (ip), vehicle: saline 98 % of control and 115 % of control | dose: 200.0 micrograms/kg/injection, schedule: Q04DX004 (ip), vehicle: saline 112 % of control

COC(=O)NC1C(C)OC(OC2C/C=C(/C)C3C=CC4C(OC5CC(OC6CC(O)C(OC7CC(O)C(OC)C(C)O7)C(C)O6)C(O)C(C)O5)C(C)CC(C)C4C3(C)/C(O)=C3\C(=O)OC4(CC(C)C(CO)=CC4/C=C\2C)C3=O)CC1(C)[N+](=O)[O-] (stereo not given)
inactive: dose: 25.0 mg/kg/injection, schedule: Q04DX004 (ip), vehicle: Klucel (hydroxypropylcellulose) (HPC) 105 % of control | [4] 100 % of control | [5] 87 % of control | [6] 100 % of control

Cc1c(-c2ccc(-c3ccccc3F)cc2)nc2ccc(F)cc2c1C(=O)O
inactive: dose: 6.25 mg/kg/injection, schedule: Q01DX009 (ip), vehicle: water 124 % of control | dose: 12.5 mg/kg/injection, schedule: Q01DX009 (ip), vehicle: water 123 % of control | dose: 25.0 mg/kg/injection, schedule: Q01DX009 (ip), vehicle: water 124 % of control

Cc1ccc2c(c1)n([O-])c1cc(Cl)ccc1[n+]2=O
inactive: [7] 104 % of control | [8] 113 % of control | [9] 109 % of control | dose: 144.0 mg/kg/injection, schedule: Q04DX004 (ip), vehicle: saline with Tween-80 120 % of control

CC1=C(C(N)=O)C(c2ccccc2)NC(=S)N1 (stereo not given)
inactive: [4] 107 % of control | [5] 99 % of control | [6] 104 % of control

CC1=C(/C=C/C(C)=C/C=C/C(C)=C/C(=O)Nc2ccc(O)cc2)C(C)(C)CCC1
inactive: [7] 97 % of control | [8] 96 % of control | [9] 105 % of control | [10] 95 % of control | dose: 400.0 mg/kg/injection, schedule: Q04DX004 (ip), vehicle: saline with Tween-80 97 % of control

Cc1c2c(ccc3ccccc32)c[n+]2ccccc12
inactive: dose: 1.5 mg/kg/injection, schedule: Q04DX004 (ip), vehicle: saline with Tween-80 97 % of control and 104 % of control and 109 % of control | dose: 3.0 mg/kg/injection, schedule: Q04DX004 (ip), vehicle: saline with Tween-80 92 % of control and 97 % of control and 104 % of control | dose: 6.0 mg/kg/injection, schedule: Q04DX004 (ip), vehicle: saline with Tween-80 92 % of control and 107 % of control and 115 % of control | dose: 12.0 mg/kg/injection, schedule: Q04DX004 (ip), vehicle: saline with Tween-80 92 % of control

Nc1nc(C=O)nc2c1ncn2C1OC(CO)C(O)C1O (stereo not given)
inactive: dose: 12.5 mg/kg/injection, schedule: Q04DX004 (ip), vehicle: water 104 % of control | [1] 104 % of control | [2] 106 % of control | [3] 109 % of control | dose: 200.0 mg/kg/injection, schedule: Q04DX004 (ip), vehicle: water 123 % of control

CC1(C)CC(OS(C)(=O)=O)CC(C)(C)N1O
inactive: dose: 18.75 mg/kg/injection, schedule: Q04DX004 (ip), vehicle: Klucel (hydroxypropylcellulose) (HPC) 99 % of control | dose: 37.5 mg/kg/injection, schedule: Q04DX004 (ip), vehicle: Klucel (hydroxypropylcellulose) (HPC) 100 % of control | dose: 75.0 mg/kg/injection, schedule: Q04DX004 (ip), vehicle: Klucel (hydroxypropylcellulose) (HPC) 102 % of control | dose: 150.0 mg/kg/injection, schedule: Q04DX004 (ip), vehicle: Klucel (hydroxypropylcellulose) (HPC) 102 % of control

O=c1[nH]c(=O)n(C2OC(CF)C(O)C2O)cc1N1CCOCC1 (stereo not given)
inactive: dose: 17.5 mg/kg/injection, schedule: Q04DX004 (ip), vehicle: saline 100 % of control | dose: 35.0 mg/kg/injection, schedule: Q04DX004 (ip), vehicle: saline 104 % of control | dose: 70.0 mg/kg/injection, schedule: Q04DX004 (ip), vehicle: saline 97 % of control | dose: 140.0 mg/kg/injection, schedule: Q04DX004 (ip), vehicle: saline 104 % of control | dose: 280.0 mg/kg/injection, schedule: Q04DX004 (ip), vehicle: saline 102 % of control

COC1N(C2CC(O)C(CO)O2)C(=O)NC(=O)C1(F)Br (stereo not given)
inactive: [11] 108 % of control | [12] 113 % of control | [13] 112 % of control | dose: 200.0 mg/kg/injection, schedule: Q04DX004 (ip), vehicle: saline 114 % of control | dose: 400.0 mg/kg/injection, schedule: Q04DX004 (ip), vehicle: saline 113 % of control

CN(C)C(=O)c1cccc(COc2ccc(N3C(N)=NC(N)=NC3(C)C)cc2Cl)c1
inactive: dose: 6.25 mg/kg/injection, schedule: Q04DX004 (ip), vehicle: suspension in saline 90 % of control | dose: 12.5 mg/kg/injection, schedule: Q04DX004 (ip), vehicle: suspension in saline 102 % of control | [14] 93 % of control | [15] 97 % of control | [16] 113 % of control

O=[n+]1c2c(n([O-])c3cc(Cl)c(Cl)cc31)CCCC2
inactive: dose: 18.75 mg/kg/injection, schedule: Q04DX004 (ip), vehicle: saline with Tween-80 99 % of control | [17] 97 % of control | [18] 100 % of control | dose: 150.0 mg/kg/injection, schedule: Q04DX004 (ip), vehicle: saline with Tween-80 97 % of control | dose: 300.0 mg/kg/injection, schedule: Q04DX004 (ip), vehicle: saline with Tween-80 95 % of control

CCc1n[nH]c(CC)c1CCCCCCOc1ccc(OC)cc1Cl
inactive: [7] 106 % of control | [17] 100 % of control | [8] 107 % of control | [18] 91 % of control | [9] 97 % of control | [10] 91 % of control

O=C(CSc1nnc(-c2ccc(Cl)cc2)s1)Nc1nccs1
inactive: dose: 5.0 mg/kg/injection, schedule: Q04DX004 (ip), vehicle: saline with Tween-80 101 % of control | dose: 10.0 mg/kg/injection, schedule: Q04DX004 (ip), vehicle: saline with Tween-80 95 % of control | dose: 20.0 mg/kg/injection, schedule: Q04DX004 (ip), vehicle: saline with Tween-80 93 % of control | [17] 90 % of control | dose: 40.0 mg/kg/injection, schedule: Q04DX004 (ip), vehicle: saline with Tween-80 88 % of control | dose: 80.0 mg/kg/injection, schedule: Q04DX004 (ip), vehicle: saline with Tween-80 88 % of control

O=C(O)CC1C(=O)OC2C3COC(=O)c4cc(O)c(O)c(O)c4-c4c(cc(O)c(O)c4O)C(=O)OC2C(OC(=O)c2cc(O)c(O)c4c2C1C(O)C(=O)O4)C(OC(=O)c1cc(O)c(O)c(O)c1)O3 (stereo not given)
inactive: dose: 6.25 mg/kg/injection, schedule: Q04DX004 (ip), vehicle: saline 89 % of control | dose: 12.5 mg/kg/injection, schedule: Q04DX004 (ip), vehicle: saline 96 % of control | [11] 97 % of control | [14] 96 % of control | [12] 104 % of control | [15] 97 % of control | [13] 96 % of control | [16] 100 % of control
